Entries after “also recorded” stand apart in the source; their conditions may differ.
Test system: Helicobacter pylori
Experiment: Histological change of stomach caused by Helicobacter pylori (H&E staining)
Type: in vivo, C57BL/6 mice
Description: 8-week old male C57BL/6 mice were classified into 4 groups, i.e., a positive control group (to which Helicobacter pylori was administered; PC), a negative control group (to which saline was administered; NC), experimental group 1 (to which Helicobacter pylori and 200 mg/kg of SAC were administered; SAC1), and experimental group 2 (to which Helicobacter pylori and 400 mg/kg of SAC were administered; SAC2). Each group had 10 mice. White powdered SAC was diluted in tap water to concentrations of 20 mg/mL and 40 mg/mL and 10 μl/g (body weight) of the diluted SAC was orally administered to the mice of the SAC1 and SAC2 groups three times a week for 10 weeks. The mice were given free access to tap water for the entire test period. The Helicobacter pylori was collected with saline to a concentration of 1×10^9 CFU/mL, and 0.2 mL of the diluted Helicobacter pylori was orally administered to each mouse for 8 weeks from 2 weeks after SAC administration. The mice were fasted for 8 hours before the infection, and 0.15 mL of 0.2 M sodium bicarbonate (NaHCO3) was administered to each mouse 10 minutes before the administration of Helicobacter pylori in order to neutralize acidified stomach due to the fasting. The same amount of saline instead of the infectious substances was administered into the NC group. The mice of all groups were fed with a normal diet. After a 10-week test period, autopsies were performed on all mice, and samples of blood and internal organs were collected for tissue pathological analyses. […]
A stomach sample was fixed with 10% formalin and a paraffin block was formed. […] In addition, the number of eosinophils was checked from a region where the esophagus and stomach join and counted from three regions of the stomach, i.e., cardia, gastric pit, and gastric crypt of lamina propria. The number of mitotic figures was counted from two regions selected from the entire antrum from cardia to pylorus. Thus two samples were obtained from each animal and evaluated with a 400× magnification, and an average value of each group was calculated.

For C=CCSC[C@H](N)C(=O)O [SAC, S-allyl-L-cysteine], the “number of eosinophils in stomach versus PC group” value (SAC1 and SAC2 groups (200 and 400 mg/kg SAC)) was “significantly reduced; also recorded: less than that of the PC group”, the “number of eosinophils in stomach versus PC group” value (SAC1 group (200 mg/kg SAC), p<0.05) was “significantly less than that of the PC group” and the “number of mitotic figures” value (SAC2 group (400 mg/kg SAC)) was “slightly reduced”.

— patent US20140024716A1, “Composition Comprising S-Allyl-L-Cysteine as Active Ingredient for Preventing or Treating Gastrointestinal Disorders” (PHARMAKING CO., LTD., priority 2009, published 2014)
